The structures appear in SMILES notation.

For one assay, the target named is T1, hA3 AR (Homo sapiens, UniProt P0DMS8).
T1 sequence (P0DMS8 1-318): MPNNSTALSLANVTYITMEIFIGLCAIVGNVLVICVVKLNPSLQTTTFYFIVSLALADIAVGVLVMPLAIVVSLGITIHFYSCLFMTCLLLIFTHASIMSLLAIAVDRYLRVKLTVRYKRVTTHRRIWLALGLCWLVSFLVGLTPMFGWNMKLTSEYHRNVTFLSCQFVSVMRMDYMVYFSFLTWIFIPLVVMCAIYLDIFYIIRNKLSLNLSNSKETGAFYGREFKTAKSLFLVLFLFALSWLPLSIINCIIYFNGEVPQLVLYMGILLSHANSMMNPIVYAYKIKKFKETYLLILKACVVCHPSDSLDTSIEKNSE
As to the kind of experiment: Radioligand binding at hA3 AR.

The test system of a further assay is human washed platelets. As to the kind of experiment: Inhibition of ADP-induced aggregation of human washed platelets. Type of assay: cell-based. The conditions noted are these: Platelet, read-out: IC50, inhibition of platelet aggregation.
The next assay deals with T2, hA1 AR (Homo sapiens, UniProt P30542).
T2 sequence (P30542 1-326): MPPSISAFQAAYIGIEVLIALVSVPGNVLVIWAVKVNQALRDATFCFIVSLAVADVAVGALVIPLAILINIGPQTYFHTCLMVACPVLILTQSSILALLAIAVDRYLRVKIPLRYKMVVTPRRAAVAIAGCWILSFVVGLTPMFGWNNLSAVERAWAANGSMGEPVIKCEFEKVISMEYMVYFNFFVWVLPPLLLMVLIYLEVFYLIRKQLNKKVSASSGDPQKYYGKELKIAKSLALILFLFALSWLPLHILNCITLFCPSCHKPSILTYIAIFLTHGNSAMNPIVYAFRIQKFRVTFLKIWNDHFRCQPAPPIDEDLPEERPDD
As to the kind of experiment: Radioligand binding at hA1 AR.

A further assay deals with T3, hA2B AR (Homo sapiens, UniProt P29275).
T3 sequence (P29275 1-332): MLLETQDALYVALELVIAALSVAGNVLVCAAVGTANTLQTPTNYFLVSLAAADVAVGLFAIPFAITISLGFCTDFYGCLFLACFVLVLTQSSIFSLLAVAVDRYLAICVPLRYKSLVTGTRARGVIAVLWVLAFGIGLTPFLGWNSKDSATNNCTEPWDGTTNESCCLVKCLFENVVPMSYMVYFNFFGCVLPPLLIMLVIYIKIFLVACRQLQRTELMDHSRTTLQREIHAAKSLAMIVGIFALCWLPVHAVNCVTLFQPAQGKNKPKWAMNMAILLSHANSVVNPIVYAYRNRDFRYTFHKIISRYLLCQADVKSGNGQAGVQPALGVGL
As to the kind of experiment: Cyclic AMP accumulation assay, CHO cells expressing hA2B AR. Type of assay: cell-based. The note with it: at 10 μM, in comparison to full agonist NECA (100%).

Setting [1] is: inhibition of radioligand binding at 1 μM.

For orientation: inhibition means the relative decrease from the control value, in per cent. As a reminder, the IC50 is the concentration needed to halve the response being measured. Take `CCNC(=O)[C@H]1O[C@@H](n2cnc3c(N)nc(NCCc4ccc(CCC(=O)O)cc4)nc32)[C@H](O)[C@@H]1O` [compound 1, 2-[4-(2-carboxylethyl)phenylethylamino]-5′-N-ethylcarboxamidoadenosine, reference compound]: the results for the inhibition at 1 µM on hA3 AR (read-out: hA3 % inhibition) and on hA1 AR (read-out: hA1 % inhibition) were 59.8 ± 4.4% and 24.9 ± 4.6%, respectively. Besides, the IC50 in the assay on human washed platelets was determined as 0.192 ± 0.09 µM.

For the compound `CCNC(=O)[C@H]1O[C@@H](n2cnc3c(N)nc(NCCc4ccc(CCC(=O)NCCN)cc4)nc32)[C@H](O)[C@@H]1O` [compound 2, 2-[4-(2-Aminoethylaminocarbonylethyl)phenylethylamino]-5′-N-ethylcarboxamidoadenosine, reference compound], the hA3 % inhibition at hA3 AR (setting [1]) is recorded as 85.3 ± 3.2%. Besides, the hA1 % inhibition on hA1 AR (setting [1]) is recorded as 56.9 ± 9.1%. On hA2B AR, the “hA2B % activation of adenylate cyclase” value came out at 5.5 ± 4.7%.
